Experimental data: patent US11814444B2, “Cyclic polypeptides for PCSK9 inhibition” (Ra Pharmaceuticals, Inc., priority 2018, dated 2023)
Numbered stars: 1 amine (or outer) side, 2 acyl side, 3 side chain; on linkers, the order of the positions; unused ones are H or OH. Bridge positions count the residues as written; N and C are the ends. Square brackets hold non-standard residues; d marks the D form. Peptide text beside a SMILES is read from it. Ala(1H-tetrazol-5-yl) = N[C@@H](Cc1nnn[nH]1)C(=O)O; Phe(4-CF3) = N[C@@H](Cc1ccc(C(F)(F)F)cc1)C(=O)O; Trp(5-F) = N[C@@H](Cc1c[nH]c2ccc(F)cc12)C(=O)O; Trp(7-aza) = N[C@@H](Cc1c[nH]c2ncccc12)C(=O)O; mXylylene = c1cc(C[*:1])cc(C[*:2])c1; Aad = N[C@@H](CCCC(=O)O)C(=O)O; Tle = CC(C)(C)[C@H](N)C(=O)O; Nva = CCC[C@H](N)C(=O)O; Mpa = O=C(O)CCS

Assays:
PCSK9 = PCSK9 (Homo sapiens, UniProt Q8NBP7); assay: PCSK9 Alexa FRET Standard assay (displacement of AlexaFluor647 tagged cyclic peptide Reagent A); format: binding; conditions: 0.5 nM PCSK9, 20 nM AF cyclic peptide Reagent A
Sequence of PCSK9 (Q8NBP7 153-692): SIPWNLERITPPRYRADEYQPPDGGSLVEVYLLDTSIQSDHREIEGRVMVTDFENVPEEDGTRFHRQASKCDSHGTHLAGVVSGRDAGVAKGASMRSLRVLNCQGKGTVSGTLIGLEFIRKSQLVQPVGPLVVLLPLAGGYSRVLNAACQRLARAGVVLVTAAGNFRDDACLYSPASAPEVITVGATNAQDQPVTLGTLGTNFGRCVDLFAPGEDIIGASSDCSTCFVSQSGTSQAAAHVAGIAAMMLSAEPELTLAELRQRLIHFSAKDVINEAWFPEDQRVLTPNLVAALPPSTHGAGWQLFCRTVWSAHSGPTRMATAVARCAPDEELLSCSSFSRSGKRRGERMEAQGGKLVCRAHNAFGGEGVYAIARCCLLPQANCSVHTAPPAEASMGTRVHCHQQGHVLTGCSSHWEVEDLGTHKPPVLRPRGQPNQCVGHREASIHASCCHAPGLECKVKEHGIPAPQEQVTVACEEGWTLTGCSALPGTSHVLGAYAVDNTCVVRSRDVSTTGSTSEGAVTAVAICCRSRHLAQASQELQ
How it was run: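 TR-FRET displacement: 0.5 nM biotinylated PCSK9 with 1.25 nM Strep-Eu and 20 nM AlexaFluor-tagged cyclic peptide (final) in 50 mM HEPES pH 7.4, 0.15 M NaCl, 5 mM CaCl2, 0.01% BSA, 0.01% P20, ≥2 h at room temperature. IC50 from sigmoidal fit, converted to Ki via peptide KD; falling Eu counts flagged false positives.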

[1] = target: human PCSK9 / human LDLR EGFa domain interaction (Homo sapiens, UniProt Q8NBP7); assay: TR-FRET assay of inhibition of the PCSK9-LDLR protein-protein interaction; format: binding; conditions: 20 nM avitag-biotinylated human PCSK9, 20 nM his-tagged human LDLR EGFa domain, 2 hours, room temperature
Sequence of human PCSK9 / human LDLR EGFa domain interaction (Q8NBP7 153-692): as above
Sequence of human PCSK9 / human LDLR EGFa domain interaction (Q8NBP7 31-152 partner limits assumed): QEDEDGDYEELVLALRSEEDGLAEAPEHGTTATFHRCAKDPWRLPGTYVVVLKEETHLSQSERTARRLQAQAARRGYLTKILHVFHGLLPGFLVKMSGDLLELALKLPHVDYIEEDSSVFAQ
How it was run: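 Half-maximal inhibitory concentrations came from 4-parameter fits of dose-response data. Proteins: biotinylated PCSK9, His-tagged LDLR EGFa, 20 nM each; labels 5 nM; 2 h, room temperature; buffer 50 mM HEPES, 150 mM NaCl, 5 mM CaCl2.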

| SMILES | IC50 (PCSK9) [µM] | IC50 [1] [µM] |
| --- | --- | --- |
| CCC[C@@H]1NC(=O)[C@H](Cc2c[nH]c3ncccc23)NC(=O)[C@H]([C@@H](C)O)NC(=O)[C@H](Cc2c[nH]cn2)NC(=O)[C@H](Cc2ccc(O)cc2)NC(=O)[C@H](C(C)(C)C)NC(=O)[C@@H](NC(C)=O)CSCc2cccc(c2)CSC[C@@H](C(N)=O)NC(=O)[C@H]([C@@H](C)O)NC(=O)[C@H](CCC)NC(=O)[C@H](Cc2ccc(O)cc2)NC(=O)[C@H](CCC(=O)O)NC1=O [Compound 235] (Ac-C[Tle]YHT[Trp(7-aza)][Nva]EY[Nva]TC-NH2; linker 1-12 via mXylylene) | 1 to 21 | 0.1 to 1 |
| CCC[C@@H]1NC(=O)[C@H](Cc2ccc(O)cc2)NC(=O)[C@H](CCC(=O)O)NC(=O)[C@H](CCC)NC(=O)[C@H](Cc2c[nH]c3ncccc23)NC(=O)[C@H]([C@@H](C)O)NC(=O)[C@H](Cc2c[nH]cn2)NC(=O)[C@H](Cc2ccc(O)cc2)NC(=O)[C@H](C(C)(C)C)NC(=O)CCSCc2cccc(c2)CSC[C@@H](C(N)=O)NC(=O)[C@H](Cc2c[nH]cn2)NC1=O [Compound 247] ([Mpa][Tle]YHT[Trp(7-aza)][Nva]EY[Nva]HC-NH2; linker 1-12 via mXylylene) | 1 to 21 | 0.1 to 1 |
| CCC[C@@H]1NC(=O)[C@H](Cc2c[nH]c3ncccc23)NC(=O)[C@H]([C@@H](C)O)NC(=O)[C@H](Cc2c[nH]cn2)NC(=O)[C@H](Cc2ccc(O)cc2)NC(=O)[C@H](C(C)(C)C)NC(=O)CCSCc2cccc(c2)CSC[C@@H](C(N)=O)NC(=O)[C@H]([C@@H](C)O)NC(=O)[C@H](CCC)NC(=O)[C@H](Cc2ccc(O)cc2)NC(=O)[C@H](Cc2nnn[nH]2)NC1=O [Compound 253] ([Mpa][Tle]YHT[Trp(7-aza)][Nva][Ala(1H-tetrazol-5-yl)]Y[Nva]TC-NH2; linker 1-12 via mXylylene) | 1 to 21 | 0.1 to 1 |
| CCC[C@@H]1NC(=O)[C@H](Cc2c[nH]c3ncccc23)NC(=O)[C@H]([C@@H](C)O)NC(=O)[C@H](Cc2c[nH]cn2)NC(=O)[C@H](Cc2ccc(O)cc2)NC(=O)[C@H](C(C)(C)C)NC(=O)CCSCc2cccc(c2)CSC[C@@H](C(N)=O)NC(=O)[C@H]([C@@H](C)O)NC(=O)[C@H](CCC)NC(=O)[C@H](Cc2ccc(O)cc2)NC(=O)[C@H](CC(=O)O)NC1=O [Compound 254] ([Mpa][Tle]YHT[Trp(7-aza)][Nva]DY[Nva]TC-NH2; linker 1-12 via mXylylene) | 1 to 21 | 0.1 to 1 |
| CCC[C@@H]1NC(=O)[C@H](Cc2c[nH]c3ncccc23)NC(=O)[C@H]([C@@H](C)O)NC(=O)[C@H](Cc2c[nH]cn2)NC(=O)[C@H](Cc2ccc(O)cc2)NC(=O)[C@H](C(C)(C)C)NC(=O)CCSCc2cccc(c2)CSC[C@@H](C(N)=O)NC(=O)[C@H]([C@@H](C)O)NC(=O)[C@H](CCC)NC(=O)[C@H](Cc2ccc(O)cc2)NC(=O)[C@H](CCCC(=O)O)NC1=O [Compound 259] ([Mpa][Tle]YHT[Trp(7-aza)][Nva][Aad]Y[Nva]TC-NH2; linker 1-12 via mXylylene) | 1 to 21 | 0.1 to 1 |
| CCC[C@@H]1NC(=O)[C@H](Cc2c[nH]c3ncccc23)NC(=O)[C@H]([C@@H](C)O)NC(=O)[C@H](Cc2c[nH]cn2)NC(=O)[C@H](Cc2ccc(O)cc2)NC(=O)[C@H](C(C)(C)C)NC(=O)CCSCc2cccc(c2)CSC[C@@H](C(N)=O)NC(=O)[C@H]([C@@H](C)O)NC(=O)[C@H](CCC)NC(=O)[C@H](Cc2ccc(C(F)(F)F)cc2)NC(=O)[C@H](CCC(=O)O)NC1=O [Compound 260] ([Mpa][Tle]YHT[Trp(7-aza)][Nva]E[Phe(4-CF3)][Nva]TC-NH2; linker 1-12 via mXylylene) | 1 to 21 | 1 to 21 |
| CCC[C@@H]1NC(=O)[C@H](Cc2c[nH]c3ncccc23)NC(=O)[C@H]([C@@H](C)O)NC(=O)[C@H](Cc2c[nH]cn2)NC(=O)[C@H](Cc2ccc(O)cc2)NC(=O)[C@H](C(C)(C)C)NC(=O)CCSCc2cccc(c2)CSC[C@@H](C(N)=O)NC(=O)[C@H]([C@@H](C)O)NC(=O)[C@H](CCC)NC(=O)[C@H](Cc2c[nH]c3ccc(F)cc23)NC(=O)[C@H](CCC(=O)O)NC1=O [Compound 261] ([Mpa][Tle]YHT[Trp(7-aza)][Nva]E[Trp(5-F)][Nva]TC-NH2; linker 1-12 via mXylylene) | 1 to 21 | 1 to 21 |
